Data from US20130281410A1, “METHODS FOR THE TREATMENT OF PSYCHIATRIC DISORDERS” (University of Utah Research Foundation, priority 2010, published 2013).

Experiments:
[1] = test system: adolescent MDD patients living at high altitude; experiment: Clinical study of creatine monohydrate in adolescent MDD patients living at high altitude (CDRS); type: in vivo, human; conditions: adolescents with MDD, Salt Lake City (4,300 feet), 5 g/day creatine monohydrate as a powder, 1 to 10 weeks
Procedure: Clinical assessment was performed using the Children's Depression Rating Scale (CDRS).
A clinical study was performed to determine the effect of creatine on adolescent MDD patients living at high altitude (Salt Lake City; elevation of 4,300 feet). In this study, three adolescents diagnosed as having MDD and living at high altitude were administered 5 g/day of creatine monohydrate (as a powder). The subjects in the study were monitored using the Children's Depression Rating Scale (CDRS). The study was performed for 1 to 10 weeks.

[2] = test system: male MDD subjects; experiment: Clinical study of creatine monohydrate in male MDD subjects (HAMD, BDI); type: in vivo, human; conditions: 5 g/day creatine monohydrate as a powder vs placebo, 0 to 8 weeks, FIGS. 1A and 1B
Procedure: FIGS. 1A and 1B show clinical assessment data of male subjects having MDD upon treatment with placebo (grey lines) or creatine monohydrate (5 g/day, black lines) for 0 to 8 weeks. Clinical assessment was performed using the Hamilton Depressing Rating Scale (FIG. 1A) or the Beck Depression Inventory scale (FIG. 1B).
A clinical study was performed to study the effect of creatine administration on male MDD subjects. A total of 6 male subjects (mean age of 42.7 years; age range 27 to 63) were enrolled in this study. Among the subjects, 5 subjects (mean age of 38.6 years; age range of 27 to 59) underwent at least one follow-up assessment. Three subjects received 5 g/day creatine monohydrate (as a powder), and two subjects received a placebo. The MDD symptoms of the subjects were assessed using the Hamilton Depression Rating Scale (HAMD) (FIG. 1A) or the Beck Depression Inventory (BDI) (FIG. 1B). The baseline HAMD total score for intention-to-treat sample was 30.4 (standard deviation of 5.1) and the baseline BDI total score was 31 (standard deviation of 11.3).

## CN(CC(=O)O)C(=N)N.O [creatine, creatine monohydrate]
[1]
  symptoms of MDD in patients living at high altitude: reduces the symptoms of MDD in patients living at high altitude
[1]; after failing an SSRI trial, FIG. 2
  Children's Depression Rating Scale (CDRS) score: reduction in CDRS score
[2]
  symptoms of MDD, Hamilton Depression Rating Scale (HAMD) and Beck Depression Inventory (BDI): reduces the symptoms of MDD in male subjects
